Literature values, collected in patent publication US20210121515A1, “COMPOSITION FOR USE IN THE PREVENTION AND/OR TREATMENT OF OSTEOARTICULAR DISEASES” (NEILOS S.R.L., priority 2018, published 2021).

How the values were obtained:
[1] = system: NF-κB, COX-2, superoxide dismutase; details: rats
[2] = system: carrageenan edema and pleurisy; details: doses of 1 mg/kg; comparable to 5 mg/kg of indomethacin
[3] = target: T1, mPGES-1 (Homo sapiens, UniProt O14684); details: intact A549 cell assays
T1 construct: with an IC50 of 10 μM in intact A549 cell assays; endogenous in cells; host or cells: A549
T1 sequence (O14684 1-152): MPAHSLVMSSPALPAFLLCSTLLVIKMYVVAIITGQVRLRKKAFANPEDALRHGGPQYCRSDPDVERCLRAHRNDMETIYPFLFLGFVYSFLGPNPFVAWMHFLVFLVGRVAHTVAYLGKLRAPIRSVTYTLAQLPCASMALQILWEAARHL

SMILES	levels of COX-2 [1]	levels of NF-κB [1]	levels of superoxide dismutase [1]	activity in acute inflammation models [2]	IC50 [3]
O=C(O)[C@H]1O[C@@H](Oc2cc3oc(-c4ccccc4)cc(=O)c3c(O)c2O)[C@H](O)[C@@H](O)[C@@H]1O [baicalin]	reduce	reduce	increasing		
C[C@H]1[C@H](C)CC[C@]2(C)CC[C@]3(C)C(=CC[C@@H]4[C@@]5(C)CC[C@@H](O)[C@](C)(C(=O)O)[C@@H]5CC[C@]43C)[C@H]12 [β-boswellic acid]				good activity	10 µM
